Measurements taken from PubChem BioAssay AID256 (DTP/NCI, 2004).
“And” between values parts separate entries of the source, which are not always exact repeats. Equal values may be shown once. Toxic doses and inconclusive results are not listed. The calls were made as follows: active = survival T/C of 150% or more; inactive = T/C below 125% in these data.

System: CD2F1 mice, L1210 leukemia ip, survival T/C
Assay: NCI In Vivo Anticancer Drug Screen. Data for tumor model L1210 Leukemia (intraperitoneal) in CD2F1 (CDF1) mice
Details: higher = longer survival
In short: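 Mice carrying a transplanted tumor received test compound or vehicle alone. The value is the measurement in the treated group divided by that in the vehicle-treated control group.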

[1] = endpoint: mean survival time, dose: 100.0 mg/kg/injection, schedule: Q01DX009 (ip), vehicle: saline
[2] = endpoint: mean survival time, dose: 200.0 mg/kg/injection, schedule: Q01DX009 (ip), vehicle: saline
[3] = endpoint: mean survival time, dose: 400.0 mg/kg/injection, schedule: Q01DX009 (ip), vehicle: saline
[4] = endpoint: mean survival time, dose: 50.0 mg/kg/injection, schedule: Q01DX009 (ip), vehicle: other
[5] = endpoint: mean survival time, dose: 50.0 mg/kg/injection, schedule: Q01DX009 (ip), vehicle: Klucel (hydroxypropylcellulose) (HPC)
[6] = endpoint: mean survival time, dose: 100.0 mg/kg/injection, schedule: Q01DX009 (ip), vehicle: Klucel (hydroxypropylcellulose) (HPC)
[7] = endpoint: mean survival time, dose: 100.0 mg/kg/injection, schedule: Q01DX001 (ip), vehicle: saline
[8] = endpoint: mean survival time, dose: 200.0 mg/kg/injection, schedule: Q01DX001 (ip), vehicle: saline
[9] = endpoint: mean survival time, dose: 400.0 mg/kg/injection, schedule: Q01DX001 (ip), vehicle: saline
[10] = endpoint: mean survival time, dose: 100.0 mg/kg/injection, schedule: Q01DX001 (ip), vehicle: saline with Tween-80
[11] = endpoint: mean survival time, dose: 200.0 mg/kg/injection, schedule: Q01DX001 (ip), vehicle: saline with Tween-80
[12] = endpoint: mean survival time, dose: 400.0 mg/kg/injection, schedule: Q01DX001 (ip), vehicle: saline with Tween-80
[13] = endpoint: mean survival time, dose: 100.0 mg/kg/injection, schedule: Q04DX002 (ip), vehicle: saline with Tween-80
[14] = endpoint: mean survival time, dose: 200.0 mg/kg/injection, schedule: Q04DX002 (ip), vehicle: saline with Tween-80
[15] = endpoint: mean survival time, dose: 400.0 mg/kg/injection, schedule: Q04DX002 (ip), vehicle: saline with Tween-80
[16] = endpoint: mean survival time, dose: 100.0 mg/kg/injection, schedule: Q04DX003 (ip), vehicle: saline with Tween-80
[17] = endpoint: mean survival time, dose: 200.0 mg/kg/injection, schedule: Q04DX003 (ip), vehicle: saline with Tween-80
[18] = endpoint: mean survival time, dose: 75.0 mg/kg/injection, schedule: Q01DX001 (ip), vehicle: saline
[19] = endpoint: mean survival time, dose: 150.0 mg/kg/injection, schedule: Q01DX001 (ip), vehicle: saline
[20] = endpoint: mean survival time, dose: 300.0 mg/kg/injection, schedule: Q01DX001 (ip), vehicle: saline

Measured: T/C

COc1ccc(N)cc1OC
inactive: [1] 96 % of control | [2] 102 % of control | [3] 98 % of control

COc1cc2c(cc1O)CCCCC2
inactive: [4] 100 % of control | endpoint: mean survival time, dose: 100.0 mg/kg/injection, schedule: Q01DX009 (ip), vehicle: other 103 % of control | endpoint: mean survival time, dose: 200.0 mg/kg/injection, schedule: Q01DX009 (ip), vehicle: other 92 % of control

Cc1cc(N=C(N)N)ccc1C(=O)Oc1ccc([N+](=O)[O-])cc1
inactive: endpoint: mean survival time, dose: 12.5 mg/kg/injection, schedule: Q01DX009 (ip), vehicle: other 102 % of control | endpoint: mean survival time, dose: 25.0 mg/kg/injection, schedule: Q01DX009 (ip), vehicle: other 98 % of control | [4] 90 % of control

Cc1ncc(CO)n1C
inactive: [5] 94 % of control | [6] 105 % of control | endpoint: mean survival time, dose: 200.0 mg/kg/injection, schedule: Q01DX009 (ip), vehicle: Klucel (hydroxypropylcellulose) (HPC) 105 % of control

O=P1(C(Cl)Cl)OCCCO1
inactive: [7] 103 % of control | [8] 100 % of control | [9] 100 % of control

O=c1[nH]c2c(c(=O)n1-c1ccccc1)CCCS2
inactive: [7] 103 % of control | [8] 104 % of control | [9] 103 % of control

CC(c1ccccc1)n1cncc1C(=O)NN(C)C (stereo unspecified)
inactive: [10] 96 % of control | [11] 93 % of control | [12] 91 % of control

O=C(CCl)NCc1cn(C2CC(O)C(CO)O2)c(=O)[nH]c1=O (stereo unspecified)
inactive: endpoint: mean survival time, dose: 5.6 mg/kg/injection, schedule: Q01DX005 (ip), vehicle: water 111 % of control | endpoint: mean survival time, dose: 11.25 mg/kg/injection, schedule: Q01DX005 (ip), vehicle: water 100 % of control | endpoint: mean survival time, dose: 22.5 mg/kg/injection, schedule: Q01DX005 (ip), vehicle: water 103 % of control | endpoint: mean survival time, dose: 45.0 mg/kg/injection, schedule: Q01DX005 (ip), vehicle: water 95 % of control | endpoint: mean survival time, dose: 90.0 mg/kg/injection, schedule: Q01DX005 (ip), vehicle: water 103 % of control

O=C=NC(=O)c1ccccc1
inactive: [13] 96 % of control | [14] 100 % of control | [15] 118 % of control

COC(=O)C(Br)C1CCCCC1 (stereo unspecified)
inactive: endpoint: mean survival time, dose: 50.0 mg/kg/injection, schedule: Q01DX009 (ip), vehicle: saline with Tween-80 95 % of control | endpoint: mean survival time, dose: 100.0 mg/kg/injection, schedule: Q01DX009 (ip), vehicle: saline with Tween-80 102 % of control | [16] 100 % of control | endpoint: mean survival time, dose: 200.0 mg/kg/injection, schedule: Q01DX009 (ip), vehicle: saline with Tween-80 93 % of control | [17] 102 % of control

CC1CC(C)/C(=N/NC(N)=S)C(C(O)CC2CC(=O)NC(=O)C2)C1 (stereo unspecified)
inactive: endpoint: mean survival time, dose: 25.0 mg/kg/injection, schedule: Q01DX009 (ip), vehicle: saline 94 % of control and 100 % of control | endpoint: mean survival time, dose: 50.0 mg/kg/injection, schedule: Q01DX009 (ip), vehicle: saline 100 % of control and 102 % of control | [1] 97 % of control and 103 % of control | [2] 113 % of control and 102 % of control | [3] 113 % of control and 114 % of control

C=C(CC)C1(C)C(=O)NC(=O)NC1=O
inactive: [18] 95 % of control | [19] 97 % of control | [20] 101 % of control

CCCCCCCCCCCCCCCCOc1ccc(OCCCCCCCCCCCCCCC)cc1
inactive: [10] 88 % of control | [11] 89 % of control | [12] 88 % of control

CC(=O)NC1C=C(C)C(=O)O1 (stereo unspecified)
inactive: endpoint: mean survival time, dose: 100.0 mg/kg/injection, schedule: Q04DX002 (ip), vehicle: saline 102 % of control | endpoint: mean survival time, dose: 200.0 mg/kg/injection, schedule: Q04DX002 (ip), vehicle: saline 91 % of control | endpoint: mean survival time, dose: 400.0 mg/kg/injection, schedule: Q04DX002 (ip), vehicle: saline 94 % of control

CCCc1nc(N)[nH]c(=O)c1CCCCc1ccccc1
inactive: [16] 88 % of control | [17] 94 % of control | endpoint: mean survival time, dose: 400.0 mg/kg/injection, schedule: Q04DX003 (ip), vehicle: saline with Tween-80 93 % of control

O=C1NCCS1
inactive: [18] 98 % of control | [19] 104 % of control

C[N+]([O-])(C/C=C/c1ccccc1)c1ccccc1 (stereo unspecified)
inactive: [18] 101 % of control | [19] 97 % of control | [20] 98 % of control

CN(C)C(=O)Nc1ccc(Cl)cc1
inactive: endpoint: median survival time, dose: 12.5 mg/kg/injection, schedule: Q01DX009 (ip), vehicle: saline 100 % of control | endpoint: median survival time, dose: 25.0 mg/kg/injection, schedule: Q01DX009 (ip), vehicle: saline 100 % of control | endpoint: median survival time, dose: 50.0 mg/kg/injection, schedule: Q01DX009 (ip), vehicle: saline 103 % of control | endpoint: median survival time, dose: 100.0 mg/kg/injection, schedule: Q01DX009 (ip), vehicle: saline 100 % of control | endpoint: median survival time, dose: 200.0 mg/kg/injection, schedule: Q01DX009 (ip), vehicle: saline 101 % of control | endpoint: median survival time, dose: 400.0 mg/kg/injection, schedule: Q01DX009 (ip), vehicle: saline 100 % of control

O=CN(Cc1ccccc1)c1cc([N+](=O)[O-])ccc1OCc1ccccc1
inactive: [7] 96 % of control | [8] 94 % of control | [9] 100 % of control

NC(=S)S
inactive: [13] 102 % of control | [14] 113 % of control | [15] 102 % of control

NC(=O)c1ncn(C2OC(COP(=O)(O)O)C(O)C2O)n1 (stereo unspecified)
inactive: endpoint: mean survival time, dose: 12.5 mg/kg/injection, schedule: Q01DX005 (ip), vehicle: water 98 % of control | endpoint: mean survival time, dose: 25.0 mg/kg/injection, schedule: Q01DX005 (ip), vehicle: water 101 % of control | endpoint: mean survival time, dose: 50.0 mg/kg/injection, schedule: Q01DX005 (ip), vehicle: water 102 % of control | endpoint: mean survival time, dose: 100.0 mg/kg/injection, schedule: Q01DX005 (ip), vehicle: water 98 % of control | endpoint: mean survival time, dose: 200.0 mg/kg/injection, schedule: Q01DX005 (ip), vehicle: water 102 % of control

COC1OC2COc3ccccc3OC2C(N)C1SSC1C(OC)OC2COc3ccccc3OC2C1N (stereo unspecified)
inactive: endpoint: mean survival time, dose: 75.0 mg/kg/injection, schedule: Q01DX001 (ip), vehicle: saline with Tween-80 94 % of control | endpoint: mean survival time, dose: 150.0 mg/kg/injection, schedule: Q01DX001 (ip), vehicle: saline with Tween-80 95 % of control | endpoint: mean survival time, dose: 300.0 mg/kg/injection, schedule: Q01DX001 (ip), vehicle: saline with Tween-80 94 % of control

CC[CH2][Sn]([Cl])([Cl])[CH2]CC.Oc1ccccc1C=NCCN=Cc1ccccc1O
inactive: endpoint: mean survival time, dose: 0.62 mg/kg/injection, schedule: Q01DX009 (ip), vehicle: gum acacia 100 % of control | endpoint: mean survival time, dose: 1.25 mg/kg/injection, schedule: Q01DX009 (ip), vehicle: gum acacia 100 % of control | endpoint: mean survival time, dose: 2.5 mg/kg/injection, schedule: Q01DX009 (ip), vehicle: gum acacia 97 % of control and 103 % of control | endpoint: mean survival time, dose: 3.3 mg/kg/injection, schedule: Q01DX009 (ip), vehicle: saline with Tween-80 103 % of control | endpoint: mean survival time, dose: 5.0 mg/kg/injection, schedule: Q01DX001 (ip), vehicle: saline with Tween-80 94 % of control | endpoint: mean survival time, dose: 5.0 mg/kg/injection, schedule: Q01DX009 (ip), vehicle: gum acacia 104 % of control and 108 % of control | endpoint: mean survival time, dose: 5.0 mg/kg/injection, schedule: Q01DX009 (ip), vehicle: saline with Tween-80 92 % of control | endpoint: mean survival time, dose: 7.5 mg/kg/injection, schedule: Q01DX009 (ip), vehicle: saline with Tween-80 95 % of control | endpoint: mean survival time, dose: 10.0 mg/kg/injection, schedule: Q01DX001 (ip), vehicle: saline with Tween-80 95 % of control | endpoint: mean survival time, dose: 20.0 mg/kg/injection, schedule: Q01DX001 (ip), vehicle: saline with Tween-80 96 % of control

COc1ccc(NC(=O)Oc2cccnc2)c(Cl)c1
inactive: [5] 100 % of control | [6] 104 % of control

CN1C(C)(C)CC(CN2c3ccccc3Sc3ccccc32)C1(C)C (stereo unspecified)
inactive: [16] 97 % of control | [17] 104 % of control

O=[N+]([O-])c1ccc(Sc2ccc(Br)cc2)cc1
inactive: [10] 97 % of control | [11] 106 % of control | [12] 104 % of control

CC(=O)OCC(=O)[C@@]1(O)CC[C@H]2[C@@H]3CCC4=CC(=O)C=C[C@]4(C)[C@@]3(F)[C@@H](O)C[C@@]21C
inactive: endpoint: mean survival time, dose: 12.5 mg/kg/injection, schedule: Q04DX003 (ip), vehicle: saline 104 % of control | endpoint: mean survival time, dose: 25.0 mg/kg/injection, schedule: Q04DX003 (ip), vehicle: saline 104 % of control | endpoint: mean survival time, dose: 50.0 mg/kg/injection, schedule: Q04DX003 (ip), vehicle: saline 107 % of control
